# According to patent US7074825B2, “Composition and method for treating cancer” (priority 2002, dated 2006):
# “And” between values parts separate entries of the source, which are not always exact repeats. Equal entries are not always repeated. Where two headings read alike, the source gives them in different places.
# Legend:
# [1] = tested on: B16 melanoma cells; test: B16 melanoma cell proliferation (cell count / CellTiter 96); settings: for Observed Growth (empirical percentage survival): 40 hour exposure; for Growth (average percent cell survival relative to the control group after 72 h exposure period): geranyl anthranilate 30 μM, alone or all three together
# Experimental: B16 melanoma cells were grown in monolayer culture (35×10 mm flasks) in 3 ml RPMI 1640 medium supplemented with 10% fetal bovine serum (FBS) and 80 mg gentamicin/L. The cultures, seeded with 3.3×10^4 cells/mL, were incubated for 24 h at 37° C. in a humidified atmosphere of 5% CO2. The medium was decanted and replaced with fresh medium containing the test agents. Tocotrienol, perillyl alcohol, and geranyl- or farnesyl-hydroquinone ethers were dissolved in ethanol; and lovastatin and genistein were dissolved in dimethyl sulfoxide, DMSO. The incubations were continued for an additional 48 h. All cultures contained 1 ml/L each of ethanol and DMSO. The medium and detached cells were decanted, the monolayer was washed twice with Hanks' Balanced Salt Solution (HBSS) and then incubated with a trypsin-EDTA solution at 37° C. for 2 min. Trypsin was inactivated by suspending the cells in medium containing 10% FBS. The trypsinized cells were pelleted at 250 xg and resuspended in HBSS. Viable cells, cells that excluded 0.4% trypan blue were counted with a hemocytometer; 24-h cell counts were deducted from final cell counts to provide an estimate of the net increase in cell number.
# Measurement of B16 cell proliferation was confirmed by using CellTiter 96, Aqueous One Solution (Promega). Seeding density was determined in the following pilot test. B16 cells were maintained in monolayer culture (96-well tissue culture plate) in 0.1 mL of the medium described above. Cultures, seeded in escalating densities (0-8000 cells/well with a 500-cell interval), were incubated for 72 h at 37° C. in a humidified atmosphere of 5% CO2. At 24 h the medium was decanted from each well and replaced with 0.1 mL fresh medium. The 72-h cell populations were determined by adding 20 μl of CellTiter 96, Aqueous One Solution to each well; the plate was held in dark at 37° C. for 2 h and then read at 490 nm with a SPECTRAmax, 190 multi-plate reader with SOFTmax, PRO version 3.0 (Molecular Devices). Cell survival data were assessed as absorbance versus cell seeding density. The absorbance has a linear correlation with cell seeding density up to 2000 B16 cells/well. The midpoint of cell inoculation density, 1000 cells/well, was chosen for B16 cell proliferation assay. This procedure of determining seeding density also applies to all other cell lines in which the CellTiter 96, Aqueous One Solution was used for proliferation assay. In the proliferation assay, B16cells were incubated in 96-well plates for 24 h. The medium was decanted from each well and replaced with 0.1 mL fresh medium containing the test agents. Incubation continued for an additional 48 h. Cell populations of all wells were determined according to CellTiter 96 procedure as described above. Cell proliferation represents the net absorbance, the difference in absorbance between final and 24-h measurements.
# [2] = tested on: Human PC-3 prostate adenocarcinoma cells; test: PC-3 cell proliferation, CellTiter 96, 72 h exposure; type: cell-based; settings: for Growth (average percent cell survival relative to the control group): PC3; for IC50: PC-3 cells, estimated, read-out: IC50 (suppression of proliferation); for Absorbance (net absorbance at 490 nm, net growth after 72 h): PC-3
# Experimental: (§1) Seeding density was determined in the following pilot test. […] Incubation continued for an additional 48 h.
# (§2) Incubation continued for additional 72 h.
# [3] = tested on: Human DU145 prostate carcinoma cells; test: DU145 cell proliferation, CellTiter 96, 72 h exposure; type: cell-based; settings: for Growth (average percent cell survival relative to the control group) / Absorbance (net absorbance at 490 nm, net growth after 72 h) / Growth (average percent cell survival relative to the control group after 72 h exposure period): DU145; for Growth (average percent cell survival relative to the control group after 72 h exposure period): lovastatin […], alone or all three together; for IC50: DU145 cells, estimated, read-out: IC50 (suppression of proliferation)
# Experimental: as §1, §2
# [4] = tested on: DU145 cancer cell cultures; test: Cell phase distribution by flow cytometry (propidium iodine), DU145; type: cell-based, Human; settings: genistein 10 μM, lovastatin […], γ-tocotrienol 5 μM, alone or all three together; for G2 phase cells: control 11.6%; for G1 phase cells: control 65.4%; for S phase cells: control […]
# Source text: (§3) Subsequent to the treatment of the cancer cells with these HGM-CoA reductase inhibitors, the cells were fixed in ethanol, treated with RNase and stained with propidium iodine. Fluorescent measurements were then made via a flow cytometer using a laser. A double discriminator was used as the primary gate to eliminate cell aggregates. The distribution profiles associated with the various phases (G1, S) were then obtained through the use of least squares fits of the frequency emission spectra.
# [5] = tested on: B16 cancer cell cultures; test: Cell phase distribution by flow cytometry (propidium iodine), B16; type: cell-based; settings: genistein 5 μM, lovastatin 0.5 μM, geranyl anthranilate 30 μM, alone or all three together; for G2 phase cells: control 12.7%; for S phase cells: control 22.5%; for G1 phase cells: control 64.9%
# Source text: as §3
# [6] = tested on: Human LNCaP prostate carcinoma cells; test: LNCaP cell proliferation, CellTiter 96, 72 h exposure; type: cell-based
# Experimental: as §1, §2
# [7] = genistein 5 μM, lovastatin 0.5 μM
# [8] = genistein 10 μM, γ-tocotrienol 5 μM
# [9] = perillyl alcohol 800 μM, negative = cell killing
compound,measurement,setting,value
"CC(C)=CCCC(C)=CCCC(C)=CCO [Farnesol, farnesol]",Observed Growth (empirical percentage survival),[1]; farnesol 12.5 μM,84%
same,Observed Growth (empirical percentage survival),[1]; farnesol 25 μM,54%
same,Growth (average percent cell survival relative to the control group),[2]; farnesol 50 μM,53 ± 5%
same,Growth (average percent cell survival relative to the control group),[2]; farnesol 100 μM,93 ± 7%
same,Growth (average percent cell survival relative to the control group),[3]; farnesol 50 μM,38%
same,Growth (average percent cell survival relative to the control group),[3]; farnesol 100 μM,79 ± 11%
"C/C=C(\C)C(=O)OCC=C(C)CCC=C(C)CCC=C(C)C [Farnesyl Tiglate, farnesyl tiglate]",Growth (average percent cell survival relative to the control group),[1]; farnesyl tiglate 25 μM,70%
same,Growth (average percent cell survival relative to the control group),[1]; farnesyl tiglate 50 μM,49%
"O=c1c(-c2ccc(O)cc2)coc2cc(O)cc(O)c12 [Genistein, genistein]",Growth (average percent cell survival relative to the control group),[1]; genistein 5 μM,83%
same,Observed Growth (empirical percentage survival),[1]; genistein 5.0 μM,63%
same,Growth (average percent cell survival relative to the control group after 72 h exposure period),[1]; [7],73%
same,G2 phase cells,[4],15.8%
same,G1 phase cells,[4],64.9%
same,S phase cells,[4],19.3%
same,G2 phase cells,[5],10.8%
same,S phase cells,[5],21.7%
same,G1 phase cells,[5],67.6%
same,IC50,[2]; Homo sapiens,70 ± 17 µM
same,Growth (average percent cell survival relative to the control group),[2]; genistein 10 μM,121 ± 3%
same,Growth (average percent cell survival relative to the control group),[2]; genistein 20 μM,87% and 95 ± 4%
same,Growth (average percent cell survival relative to the control group),[2]; genistein 40 μM,78% and 74 ± 11% and 84 ± 2%
same,"Absorbance (net absorbance at 490 nm, net growth after 72 h)",[2]; genistein 10 μM,0.43
same,"Absorbance (net absorbance at 490 nm, net growth after 72 h)",[2]; genistein 20 μM,0.39
same,"Absorbance (net absorbance at 490 nm, net growth after 72 h)",[2]; genistein 40 μM,0.32
same,Growth (average percent cell survival relative to the control group),[6]; genistein 10 μM,100%
same,Growth (average percent cell survival relative to the control group),[6]; genistein 20 μM,70% and 99%
same,"Absorbance (net absorbance at 490 nm, net growth after 72 h)",[3]; genistein 10 μM,0.53
same,Growth (average percent cell survival relative to the control group),[3]; genistein 10 μM,100% and 93%
same,Growth (average percent cell survival relative to the control group after 72 h exposure period),[3]; [8],100%
same,"Absorbance (net absorbance at 490 nm, net growth after 72 h)",[3]; genistein 20 μM,0.34
same,Growth (average percent cell survival relative to the control group),[3]; genistein 20 μM,97%
same,"Absorbance (net absorbance at 490 nm, net growth after 72 h)",[3]; genistein 40 μM,0.20
same,Growth (average percent cell survival relative to the control group),[3]; genistein 40 μM,38 ± 10%
same,IC50,"[3]; Homo sapiens, DU-145",30 µM
"CC(C)=CCC/C(C)=C/COC(=O)c1ccccc1N [Geranyl Anthranilate, geranyl anthranilate]",Growth (average percent cell survival relative to the control group after 72 h exposure period),[1]; [7],81%
same,G2 phase cells,[5],9.8%
same,S phase cells,[5],22.9%
same,G1 phase cells,[5],67.3%
"CC[C@H](C)C(=O)O[C@H]1C[C@@H](C)C=C2C=C[C@H](C)[C@H](CC[C@@H]3C[C@@H](O)CC(=O)O3)[C@H]21 [Lovastatin, [1S-[1α(R*),3α,7β,8β(2S*,4S*), 8a.β.]]-2-methylbutanoic acid 1,2,3,7,8,8a-hexahydro-3,7-dimethyl-8-[2-(tetrahydro-4-hydroxy-6-oxo-2H-pyran-2-yl)ethyl]-1-naphthalenyl ester, reference compound]",Growth (average percent cell survival relative to the control group after 72 h exposure period),[1]; [7],71%
same,Growth (average percent cell survival relative to the control group),[1]; lovastatin 0.5 μM,100%
same,Growth (average percent cell survival relative to the control group),[1]; lovastatin 1.0 μM,83%
same,Growth (average percent cell survival relative to the control group),[1]; lovastatin 3.0 μM,42%
same,G2 phase cells,[4],15.7%
same,G1 phase cells,[4],62.0%
same,S phase cells,[4],22.3%
same,G2 phase cells,[5],9.3%
same,S phase cells,[5],22.2%
same,G1 phase cells,[5],68.5%
same,IC50,[2]; Homo sapiens,2.2 ± 0.5 µM
same,Growth (average percent cell survival relative to the control group),[2]; lovastatin 0.75 μM,87 ± 3%
same,"Absorbance (net absorbance at 490 nm, net growth after 72 h)",[2]; lovastatin 1 μM,0.32
same,"Absorbance (net absorbance at 490 nm, net growth after 72 h)",[2]; lovastatin 2 μM,0.10
same,"Absorbance (net absorbance at 490 nm, net growth after 72 h)","[2]; lovastatin 4 μM, negative = cell killing",−0.02
same,Growth (average percent cell survival relative to the control group),[6]; lovastatin 3 μM,100%
same,Growth (average percent cell survival relative to the control group),[6]; lovastatin 3.0 μM,100%
same,Growth (average percent cell survival relative to the control group after 72 h exposure period),[3]; [8],100%
same,Growth (average percent cell survival relative to the control group),[3]; lovastatin 3 μM,100%
same,Growth (average percent cell survival relative to the control group),[3]; lovastatin 3.0 μM,100%
same,"Absorbance (net absorbance at 490 nm, net growth after 72 h)",[3]; lovastatin 4 μM,0.37
same,"Absorbance (net absorbance at 490 nm, net growth after 72 h)",[3]; lovastatin 8 μM,0.30
same,"Absorbance (net absorbance at 490 nm, net growth after 72 h)",[3]; lovastatin 16 μM,0.18
same,"Absorbance (net absorbance at 490 nm, net growth after 72 h)",[3]; lovastatin 32 μM,0.15
same,IC50,"[3]; Homo sapiens, DU-145",18 ± 2 µM
"C=C(C)[C@@H]1CC=C(CO)CC1 [Perillyl Alcohol, perillyl alcohol]",IC50,[2]; Homo sapiens,480 µM
same,"Absorbance (net absorbance at 490 nm, net growth after 72 h)",[2]; perillyl alcohol 200 μM,0.34
same,"Absorbance (net absorbance at 490 nm, net growth after 72 h)",[2]; perillyl alcohol 400 μM,0.09
same,"Absorbance (net absorbance at 490 nm, net growth after 72 h)",[2]; perillyl alcohol 600 μM,0.06
same,"Absorbance (net absorbance at 490 nm, net growth after 72 h)",[2]; [9],−0.05
same,"Absorbance (net absorbance at 490 nm, net growth after 72 h)",[3]; perillyl alcohol 100 μM,0.46
same,"Absorbance (net absorbance at 490 nm, net growth after 72 h)",[3]; perillyl alcohol 200 μM,0.40
same,"Absorbance (net absorbance at 490 nm, net growth after 72 h)",[3]; perillyl alcohol 400 μM,0.18
same,"Absorbance (net absorbance at 490 nm, net growth after 72 h)",[3]; [9],−0.06
same,"Absorbance (net absorbance at 490 nm, net growth after 72 h)","[3]; perillyl alcohol 1600 μM, negative = cell killing",−0.05
same,IC50,"[3]; Homo sapiens, DU-145",420 µM
"CC(=O)O[C@H]1C(=O)[C@@]2(C)[C@H]([C@H](OC(=O)c3ccccc3)[C@]3(O)C[C@H](OC(=O)[C@H](O)[C@@H](NC(=O)c4ccccc4)c4ccccc4)C(C)=C1C3(C)C)[C@]1(OC(C)=O)CO[C@@H]1C[C@@H]2O [Taxol, taxol, reference compound]",Growth (average percent cell survival relative to the control group),[2]; taxol 2 nM,97 ± 5%
same,Growth (average percent cell survival relative to the control group),[2]; taxol 5 nM,71 ± 1%
γ-tocotrienol,Growth (average percent cell survival relative to the control group),[1]; γ-tocotrienol 5 μM,73%
same,G2 phase cells,[4],12.2%
same,G1 phase cells,[4],66.7%
same,S phase cells,[4],21.1%
same,Growth (average percent cell survival relative to the control group),[2]; γ-tocotrienol 20 μM,100%
same,"Absorbance (net absorbance at 490 nm, net growth after 72 h)",[2]; γ-tocotrienol 40 μM,0.36
same,"Absorbance (net absorbance at 490 nm, net growth after 72 h)",[2]; γ-tocotrienol 80 μM,0.02
same,IC50,[2],39 µM
same,Growth (average percent cell survival relative to the control group),[6]; γ-tocotrienol 5 μM,100%
same,Growth (average percent cell survival relative to the control group),[6]; γ-tocotrienol 10 μM,76%
same,Growth (average percent cell survival relative to the control group),[6]; γ-tocotrienol 20 μM,70%
same,Growth (average percent cell survival relative to the control group after 72 h exposure period),[3]; [8],87%
same,"Absorbance (net absorbance at 490 nm, net growth after 72 h)",[3]; γ-tocotrienol 5 μM,0.39
same,Growth (average percent cell survival relative to the control group),[3]; γ-tocotrienol 5 μM,87%
same,"Absorbance (net absorbance at 490 nm, net growth after 72 h)",[3]; γ-tocotrienol 10 μM,0.40
same,Growth (average percent cell survival relative to the control group),[3]; γ-tocotrienol 10 μM,68%
same,"Absorbance (net absorbance at 490 nm, net growth after 72 h)",[3]; γ-tocotrienol 20 μM,0.33
same,Growth (average percent cell survival relative to the control group),[3]; γ-tocotrienol 20 μM,70%
same,"Absorbance (net absorbance at 490 nm, net growth after 72 h)",[3]; γ-tocotrienol 30 μM,0.20
same,"Absorbance (net absorbance at 490 nm, net growth after 72 h)","[3]; γ-tocotrienol 40 μM, negative = cell killing",−0.05
same,IC50,[3],20 ± 2 µM
